Patent US7888368B2, “Treatment of drug-resistant tumors” (Sigma-Tau Industrie Farmaceutiche Riunite S.p.A., priority 2005, dated 2011)
Where a chain is given by its changes, count along the chain named.

Columns and labels:
[1] = biological target: T1, human DNA topoisomerase I wild type (YCpGAL1 hTOP1) (Homo sapiens, UniProt P11387); test: In vivo spot test, yeast transformed with human DNA topoisomerase I wild type; conditions: Saccharomyces cerevisiae EKY2, 2% galactose, drug 45 μM, 48-72 h at 30° C.
T1 sequence (P11387 1-765): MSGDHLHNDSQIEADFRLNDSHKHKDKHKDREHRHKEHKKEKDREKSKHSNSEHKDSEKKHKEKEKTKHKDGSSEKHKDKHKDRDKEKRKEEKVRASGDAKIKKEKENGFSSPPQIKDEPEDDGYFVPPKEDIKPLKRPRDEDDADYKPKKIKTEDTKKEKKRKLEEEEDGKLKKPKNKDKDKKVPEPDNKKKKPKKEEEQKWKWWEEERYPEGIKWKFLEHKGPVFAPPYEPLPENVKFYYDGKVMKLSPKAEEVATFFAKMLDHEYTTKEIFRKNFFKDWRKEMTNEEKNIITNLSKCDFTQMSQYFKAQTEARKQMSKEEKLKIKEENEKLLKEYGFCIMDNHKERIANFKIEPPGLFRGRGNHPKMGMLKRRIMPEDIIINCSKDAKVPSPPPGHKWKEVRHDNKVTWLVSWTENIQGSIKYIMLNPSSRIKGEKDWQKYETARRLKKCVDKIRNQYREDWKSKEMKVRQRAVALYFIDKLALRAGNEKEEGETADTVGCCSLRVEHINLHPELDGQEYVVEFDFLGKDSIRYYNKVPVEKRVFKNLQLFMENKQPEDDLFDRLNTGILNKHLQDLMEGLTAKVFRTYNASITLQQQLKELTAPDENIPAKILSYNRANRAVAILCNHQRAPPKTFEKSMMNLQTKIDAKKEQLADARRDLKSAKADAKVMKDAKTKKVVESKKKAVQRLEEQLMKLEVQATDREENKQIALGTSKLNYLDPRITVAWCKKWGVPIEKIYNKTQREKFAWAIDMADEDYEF
Description: Before to transform the yeast cells with DNA (lithium acetate method), yeast was grown on solid medium. It was streaked on plates of 90 mm containing sterile solid medium (YPDA) (10 g yeast, 20 g peptone, 20 g dextrose, 0.7 g adenine, 20 g glucose, 20 g agar for liter). Colonies were grown after 48 h at 30° C. One day before the transformation, a single yeast colony of the strain to be transformed was inoculated in 5 ml of steril liquid YPDA (the medium above mentioned without agar). The colony was grown to saturation overnight under stirring at 30° C. The day after, 5 ml of saturated culture was diluted in 100 ml of YPDA liquid medium and grown at 30° C. to reach an optical density of 1.0 at 600 nm. Cells were centrifuged for 5 min at 4000×g at room temperature and the pellet was resuspended in 25 ml of a solution (T/E) containing 10 mM Tris-EDTA pH7.5, 1 mM EDTA and 100 mM lithium acetate. The yeast suspension was centrifuged for 5 min at 4000×g at room temperature. The pellet was resuspended in a fresh solution above described (about 500 μl) to obtain 2×10^9 cells/ml. To have the transformation, 200 μg of DNA carrier were mixed with 1 μg transforming DNA and 200 μl yeast cells in an eppendorf. Subsequently, 1.2 ml of a solution TE/lithium acetate containing 40% PEG were added and the yeast suspension was kept under stirring for 30 min at 30° C. A heat shock was performed by keeping the yeast suspension at 42° C. for 15 min. Subsequently it was centrifuged 5 sec at room temperature. Yeast was resuspended in TE buffer and spread up onto CM (complete minimal) dropout medium on plates. CM was previously prepared with 1.3 g of dropout powder containing different aminoacids without uracil, 1.7 g yeast nitrogen base without aminoacids and ammonium sulfate, 5 g ammonium sulfate, 20 g glucose and 20 of agar for liter). The plates were incubated at 30° C. until transformants appear.
To perform the in vivo spot test, the transformants were inoculated in 5 ml of steril liquid CM medium and grown overnight under stirring at 30° C. The day after a dilution of the yeast colonies was made to reach an optical density at 600 nm of 0.3. Starting from this first dilution, other serial dilutions (1:10, 1:100, 1:1000) were performed in plates of 96 well. 5 μl of each dilution were put on plates of 90 mm containing solid CM medium. For the control samples, 2% glucose or 2% galactose were added; for the camptothecin-derivatives treated samples, 2% galactose and the drugs at a concentration 45 μM were added. The yeast colonies were incubated at 30° C. for 48-72 h and analyzed macroscopically.

[2] = biological target: T2, human DNA topoisomerase I mutant YCpGAL1htop1K720E (Homo sapiens, UniProt P11387, K720E); test: In vivo spot test, yeast transformed with human DNA topoisomerase I mutant K720E; assay type: cell-based; conditions: Saccharomyces cerevisiae EKY2, 2% galactose, drug 45 μM, 48-72 h at 30° C.
T2 sequence (P11387 1-765 K720E): T1 sequence (P11387 1-765) with K720E

[3] = system: A2780/DDP platinum-resistant ovarian carcinoma; test: Antitumor activity on A2780/DDP resistant tumor xenograft; assay type: in vivo, human; conditions: A2780/DDP s.c. in nude athymic mice, q4d × 3
Description: (§1) Using a q4d dosing schedule repeated for 3-5 doses, ST1968 was compared to irinotecan or other known chemotherapeutic agents against different human tumor models (Table 2), including A2780/ADR multidrug-resistant ovarian carcinoma which overexpresses PgP glycoprotein, A2780/DDP platinum-resistant ovarian carcinoma and DU145RC1 camptothecin-resistant prostate carcinoma which was previously selected by continuous exposure of the parental sensitive DU145 to 9-nitro-camptothecin (Urasaki Y et al., 2001, Cancer Res 61, 1964-9). On this selected tumor cell line, a Topoisomerase I mutation which changes the arginine 364 codon to histidine (R364H) was found. The 364H point mutation was located in the highly conserved core, a region of Topoisomerase I within the Topoisomerase I amino acid residues 361-364 critical for camptothecin resistance. Moreover, this mutation site is close to the catalytic tyrosine. The resistance of the Topoisomerase I/R364H is probably attributable to the loss of a critical H-bond between R364 and camptothecin E-ring lactone moiety.
(§2) Exponentially growing tumor cells were injected s.c. into nude athymic mice. The number of tumor cells was previously chosen by a growth curve. Mice were housed inside cages of makrolon (33.2×15×13 cm) with stainless steel cover-feed and sterilized and dust-free bedding cobs. Animals were housed under a light-dark cycle, keeping temperature and humidity constant. Parameters of the animal rooms were assessed as follows: 22±2° C. temperature, 55±10% relative humidity, about 15-20 filtered air changes/hour and 12 hour circadian cycle of artificial light (7 a.m., 7 p.m.). At request, the environmental conditions were monitored and the data are retained in Animal Housing Archives. Drinking water was supplied ad libitum. Each mouse was offered daily a complete pellet diet (GLP 4RF21, Mucedola) throughout the study. The analytical certificates of animal food and water are retained at Sigma-Tau premises. All animals were weighed before starting the experiment and were subdivided into the different dosage groups. Each cage was identified by a paper tag indicating: cage number, group, date of tumor injection, starting date of treatment, name of the test item, dose and route of administration, date of sacrifice.
(§3) Tumor growth was followed by biweekly measurements of tumor diameters with a Vernier caliper. Tumor volume (TV, mm^3) was calculated as: [length (mm)×width (mm)^2]/2, where the width and the length are the shortest and the longest diameters of each tumor, respectively.
(§4) The efficacy of the drug treatment was assessed as: a) Tumor volume inhibition (TVI %) in treated versus control mice, calculated as: 100−[(mean tumor volume of treated animals/mean tumor volume of control animals)×100]; b) LCK (log10 cell kill) calculated by the formula LCK=(T−C)/3.32×DT, where T and C are the mean times (days) required for treated (T) and control (C) tumor, respectively, to reach 1000 mm^3, and DT is the doubling time of control tumors; CR meaning no evidence of tumor lasting for at least 10 days.

[4] = system: A2780/ADR multidrug-resistant ovarian carcinoma; test: Antitumor activity on A2780/ADR resistant tumor xenograft; assay type: in vivo, human; conditions: A2780/ADR s.c. in nude athymic mice, q4d × 4
Description: as §1, §2, §3, §4

[5] = system: DU145RC1 camptothecin-resistant prostate carcinoma; test: Antitumor activity on DU145RC1 resistant tumor xenograft; assay type: in vivo, human; conditions: DU145 RC1 s.c. in nude athymic mice, q4d × 5
Description: as §1, §2, §3, §4

[6] = system: DU145 sensitive prostate carcinoma; test: Antitumor activity on DU145 tumor xenograft; assay type: in vivo, human; conditions: DU145 s.c. in nude athymic mice, 35 iv mg/kg, q4d × 4
Description: Using a q4d dosing schedule repeated for 3-5 doses, ST1968 was compared to irinotecan or other known chemotherapeutic agents against different human tumor models (Table 2), including A2780/ADR multidrug-resistant ovarian carcinoma which overexpresses PgP glycoprotein, A2780/DDP platinum-resistant ovarian carcinoma and DU145RC1 camptothecin-resistant prostate carcinoma which was previously selected by continuous exposure of the parental sensitive DU145 to 9-nitro-camptothecin (Urasaki Y et al., 2001, Cancer Res 61, 1964-9). On this selected tumor cell line, a Topoisomerase I mutation which changes the arginine 364 codon to histidine (R364H) was found. […]
Exponentially growing tumor cells were injected s.c. into nude athymic mice. […] Parameters of the animal rooms were assessed as follows: 22±2° C. temperature, 55±10% relative humidity, about 15-20 filtered air changes/hour and 12 hour circadian cycle of artificial light (7 a.m., 7 p.m.). At request, the environmental conditions were monitored and the data are retained in Animal Housing Archives. […]
Tumor growth was followed by biweekly measurements of tumor diameters with a Vernier caliper. Tumor volume (TV, mm^3) was calculated as: [length (mm)×width (mm)^2]/2, where the width and the length are the shortest and the longest diameters of each tumor, respectively. […]

CC[C@@]1(O)C(=O)OCc2c1cc1n(c2=O)Cc2c-1nc1ccccc1c2/C=N/OC(C)(C)C [ST1481, 7-t-butoxyiminomethylcamptothecin]
growth of the yeasts transformed with the DNA topoisomerase I wild type [1]: inhibit the growth

CCC1(O)C(=O)OCc2c1cc1n(c2=O)Cc2c-1nc1ccccc1c2C=NOCCN1CCOCC1 (stereo not drawn) [ST1600, 7-[2-(4-morpholinyl)ethoxy]iminomethylcamptothecin]
growth of the yeasts transformed with the DNA topoisomerase I wild type [1]: inhibit the growth

CC[C@@]1(O)C(=O)OCc2c1cc1n(c2=O)Cc2c-1nc1ccccc1c2/C=N\OCCN [ST1968, 7-(2-amino)ethoxyiminomethylcamptothecin]
growth of the yeasts transformed with the DNA topoisomerase I wild type [1]: inhibit the growth
growth of the transformed YCpGAL1htop1K720E mutant [2]: able to inhibit the growth
CR ([3]; 15 mg/kg): 8/8
LCK ([3]; 15 mg/kg): 6.3
TVI % ([3]; 15 mg/kg): 100%
CR ([3]; 30 mg/kg): 7/7
LCK ([3]; 30 mg/kg): >>6.3
TVI % ([3]; 30 mg/kg): 100%
CR ([4]; 15 mg/kg): 6/8
LCK ([4]; 15 mg/kg): 2.2
TVI % ([4]; 15 mg/kg): 99%
LCK ([4]; 30 mg/kg): 1.9
TVI % ([4]; 30 mg/kg): 100%
CR ([5]; 30 mg/kg): 0/8
LCK ([5]; 30 mg/kg): 1.3
TVI % ([5]; 30 mg/kg): 65%
LCK [6]: 0.65
TVI % [6]: 66%

CCC1(O)C(=O)OCc2c1cc1n(c2=O)Cc2c-1nc1ccccc1c2C=NOCCN(C)C (stereo not drawn) [ST1969, 7-(2-dimethylamino)ethoxyiminomethylcamptothecin]
growth of the yeasts transformed with the DNA topoisomerase I wild type [1]: inhibit the growth
growth of the transformed YCpGAL1htop1K720E mutant [2]: able to inhibit the growth

CCC1(O)C(=O)OCc2c1cc1n(c2=O)Cc2c-1nc1ccccc1c2C=NOCc1ccc(N)cc1 (stereo not drawn) [ST1976, 7-(4-amino)benzyloxyiminomethylcamptothecin]
growth of the yeasts transformed with the DNA topoisomerase I wild type [1]: inhibit the growth

CC[C@@]1(O)C(=O)OCc2c1cc1n(c2=O)Cc2cc3ccccc3nc2-1 [camptothecin]
growth of the yeasts transformed with the DNA topoisomerase I wild type [1]: inhibit the growth

N.N.O=C([O-])C1(C(=O)[O-])CCC1.[Pt+2] [carboplatin]
CR ([3]; 25 mg/kg): 0/8
LCK ([3]; 25 mg/kg): 0.5
TVI % ([3]; 25 mg/kg): 26%
CR ([4]; 33.3 mg/kg): 0/7
LCK ([4]; 33.3 mg/kg): 0.6
TVI % ([4]; 33.3 mg/kg): 62%

CCc1c2c(nc3ccc(OC(=O)N4CCC(N5CCCCC5)CC4)cc13)-c1cc3c(c(=O)n1C2)COC(=O)[C@]3(O)CC [irinotecan]
CR ([5]; 60 mg/kg): 0/8
LCK ([5]; 60 mg/kg): 0.8
TVI % ([5]; 60 mg/kg): 45%

CC(=O)O[C@H]1C(=O)[C@@]2(C)[C@H]([C@H](OC(=O)c3ccccc3)[C@]3(O)C[C@H](OC(=O)[C@H](O)[C@@H](NC(=O)c4ccccc4)c4ccccc4)C(C)=C1C3(C)C)[C@]1(OC(C)=O)CO[C@@H]1C[C@@H]2O [paclitaxel]
CR ([3]; 15 mg/kg): 6/6
LCK ([3]; 15 mg/kg): 1.4
TVI % ([3]; 15 mg/kg): 94%
CR ([4]; 16 mg/kg): 0/8
LCK ([4]; 16 mg/kg): 0.1
TVI % ([4]; 16 mg/kg): 16%

CC[C@@]1(O)C(=O)OCc2c1cc1n(c2=O)Cc2cc3c(CN(C)C)c(O)ccc3nc2-1 [topotecan]
CR ([3]; 10 mg/kg): 1/8
LCK ([3]; 10 mg/kg): 1.2
TVI % ([3]; 10 mg/kg): 93%
CR ([4]; 10 mg/kg): 1/6
LCK ([4]; 10 mg/kg): 1.1
TVI % ([4]; 10 mg/kg): 85%
